Test results as given in US12077503B2, “Substituted cyclic amides and their use as herbicides” (FMC CORPORATION, priority 2015, dated 2024).

Columns and labels:
Format in all cases: in vivo
[1] = test system: velvetleaf (Abutilon theophrasti); test: Test A preemergence; conditions: Preemergence, 1000 g ai/ha; 0 is no effect, 100 is complete control
Method in brief: (§1)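 In a loam soil and sand blend, planted seeds got a preemergence directed soil spray, and young plants at the one- to two-leaf stage, 2–10 cm high, got a postemergence application; ~10 d greenhouse hold; injury rated visually, 0 = none, 100 = complete control.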

[2] = test system: wheat (Triticum aestivum); test: Test A preemergence; conditions: Preemergence, 1000 g ai/ha; 0 is no effect, 100 is complete control
Method in brief: as §1

[3] = test system: corn (Zea mays); test: Test A preemergence; conditions: Preemergence, 1000 g ai/ha; 0 is no effect, 100 is complete control
Method in brief: as §1

[4] = test system: crabgrass, large (Digitaria sanguinalis); test: Test A preemergence; conditions: Preemergence, 1000 g ai/ha; 0 is no effect, 100 is complete control
Method in brief: as §1

[5] = test system: barnyardgrass (Echinochloa crus-galli); test: Test A preemergence
Method in brief: as §1

[6] = test system: giant foxtail (Setaria faberii); test: Test A preemergence
Method in brief: as §1

[7] = test system: morningglory (Ipomoea spp.); test: Test A preemergence; conditions: Preemergence, 1000 g ai/ha; 0 is no effect, 100 is complete control
Method in brief: as §1

[8] = test system: pigweed (Amaranthus retroflexus); test: Test A preemergence
[9] = test system: velvetleaf (Abutilon theophrasti); test: Test A postemergence; conditions: 1000 g ai/ha, postemergence; 0 to 100 scale, 0 no effect, 100 complete control
Method in brief: as §1

[10] = test system: wheat (Triticum aestivum); test: Test A postemergence; conditions: postemergence
Method in brief: as §1

[11] = test system: corn (Zea mays); test: Test A postemergence
Method in brief: as §1

[12] = test system: crabgrass, large (Digitaria sanguinalis); test: Test A postemergence; conditions: 1000 g ai/ha, postemergence; 0 to 100 scale, 0 no effect, 100 complete control
Method in brief: as §1

[13] = test system: barnyardgrass (Echinochloa crus-galli); test: Test A postemergence
Method in brief: as §1

[14] = test system: giant foxtail (Setaria faberii); test: Test A postemergence; conditions: postemergence
Method in brief: as §1

[15] = test system: morningglory (Ipomoea spp.); test: Test A postemergence; conditions: 1000 g ai/ha, postemergence; 0 to 100 scale, 0 no effect, 100 complete control
Method in brief: as §1

[16] = test system: pigweed (Amaranthus retroflexus); test: Test A postemergence; conditions: postemergence
Method in brief: as §1

[17] = test system: rice (Oryra sativa); test: Test B flooded paddy test; conditions: Flood, 250 g ai/ha; 0 to 100 scale where 0 is no effect and 100 is complete control; 13 to 15 d
Method in brief: (§2)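 Flooding to 3 cm over soil accompanied treatment, which consisted of adding compound to the standing water around 2-leaf plants; depth was then maintained. Visual assessment versus controls followed at 13 to 15 d (scale 0–100, 0 meaning no effect).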

[18] = test system: barnyardgrass (Echinochloa crus-galli); test: Test B flooded paddy test; conditions: Flood, 250 g ai/ha; 0 to 100 scale where 0 is no effect and 100 is complete control; 13 to 15 d
Method in brief: as §2

[19] = test system: sedge, umbrella (small-flower umbrella sedge, Cyperus difformis); test: Test B flooded paddy test; conditions: Flood, 250 g ai/ha; 0 to 100 scale where 0 is no effect and 100 is complete control; 13 to 15 d
Method in brief: as §2

[20] = test system: ducksalad (Heteranthera limosa); test: Test B flooded paddy test; conditions: Flood, 250 g ai/ha; 0 to 100 scale where 0 is no effect and 100 is complete control; 13 to 15 d
Method in brief: as §2

[21] = test system: ryegrass, Italian (Italian ryegrass, Lolium multiflorum); test: Test A preemergence
Method in brief: as §1

[22] = test system: Kochia (Kochia scoparia); test: Test A preemergence
Method in brief: as §1

[23] = test system: ragweed (common ragweed, Ambrosia elatior); test: Test A preemergence
Method in brief: as §1

[24] = test system: barnyardgrass (Echinochloa crus-galli); test: Test C flooded paddy test; conditions: Flood, 0 is no effect, 100 is complete control
Method in brief: (§3)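 Test compounds were dosed straight into the flood water of pots holding 2-leaf-stage plants, with water kept 3 cm above the soil. Greenhouse plants were scored visually against controls after 13 to 15 d, from 0 (no effect) to 100 (complete control).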

[25] = test system: rice (Oryza sativa); test: Test C flooded paddy test; conditions: Flood, 0 is no effect, 100 is complete control
Method in brief: as §3

[26] = test system: sedge, umbrella (small-flower umbrella sedge, Cyperus difformis); test: Test C flooded paddy test; conditions: Flood, 0 is no effect, 100 is complete control
Method in brief: as §3

[27] = test system: ducksalad (Heteranthera limosa); test: Test C flooded paddy test; conditions: Flood, 0 is no effect, 100 is complete control
Method in brief: as §3

[28] = test system: ryegrass, Italian (Italian ryegrass, Lolium multiflorum); test: Test A postemergence; conditions: postemergence, 0 to 100 scale (0 no effect, 100 complete control)
Method in brief: as §1

[29] = test system: blackgrass (Alopecurus myosuroides); test: Test A postemergence
Method in brief: as §1

[30] = test system: Kochia (Kochia scoparia); test: Test A postemergence; conditions: postemergence, 0 to 100 scale (0 no effect, 100 complete control)
Method in brief: as §1

[31] = test system: ragweed (common ragweed, Ambrosia elatior); test: Test A postemergence; conditions: postemergence, 0 to 100 scale (0 no effect, 100 complete control)
Method in brief: as §1

[32] = test system: Galium (catchweed bedstraw, Galium aparine); test: Test A postemergence; conditions: postemergence, 0 to 100 scale (0 no effect, 100 complete control)
Method in brief: as §1

[33] = Preemergence, 1000 g ai/ha, 0 is no effect, 100 is complete control
[34] = 1000 g ai/ha, 0 to 100 scale, 0 no effect, 100 complete control
[35] = 1000 g ai/ha, postemergence, 0 to 100 scale, 0 no effect, 100 complete control
[36] = 125 g ai/ha, Preemergence, visual injury after approximately 10 d, 0 to 100 scale where 0 is no effect and 100 is complete control
[37] = 500 g ai/ha, preemergence, 0 to 100 scale, 0 = no effect, 100 = complete control
[38] = 125 g ai/ha, visual rating after approx. 10 d, 0 to 100 scale (0 no effect, 100 complete control)
[39] = 500 g ai/ha, visual injury, 0 to 100 scale (0 no effect, 100 complete control), approx. 10 d
[40] = 125 g ai/ha, visual rating after approx. 10 d
[41] = 500 g ai/ha, visual injury, approx. 10 d
[42] = 125 g ai/ha, postemergence, visual rating after approx. 10 d, 0 to 100 scale (0 no effect, 100 complete control)
[43] = Postemergence, 500 g ai/ha, 0 to 100 scale where 0 is no effect and 100 is complete control

SMILES: Nc1c(NC(=O)C2C(=O)NCC2c2ccc(F)c(F)c2)ccc(F)c1F (racemic) [Compound 358]
- Velvetleaf plant response rating (0 to 100 scale) [1]: 0
- Wheat plant response rating (0 to 100 scale) [2]: 0
- Corn plant response rating (0 to 100 scale) [3]: 0
- Crabgrass, Large plant response rating (0 to 100 scale) [4]: 50
- Barnyardgrass plant response rating (0 to 100 scale) [5, 33]: 0
- Foxtail, Giant plant response rating (0 to 100 scale) [6, 33]: 0
- Morningglory plant response rating (0 to 100 scale) [7]: 0
- Pigweed plant response rating (0 to 100 scale) [8, 33]: 0
- Plant response rating, Velvetleaf [9]: 0
- Plant response rating, Wheat [10, 34]: 0
- Plant response rating, Corn [11, 35]: 0
- Plant response rating, Crabgrass, Large [12]: 40
- Plant response rating, Barnyardgrass [13, 35]: 0
- Plant response rating, Foxtail, Giant [14, 34]: 30
- Plant response rating, Morningglory [15]: 0
- Plant response rating, Pigweed [16, 34]: 0

SMILES: CN1CC(c2cccc(F)c2)C(C(=O)Nc2ccc(F)cc2F)C1=O (centres unmarked) [Compound 633]
- Plant response rating, Rice [17]: 20
- Plant response rating, Barnyardgrass [18]: 90
- Plant response rating, Sedge, Umbrella [19]: 0
- Plant response rating, Ducksalad [20]: 100
- Plant response rating, Ryegrass, Italian [21, 36]: 30
- Plant response rating, Ryegrass, Italian [21, 37]: 60
- Plant response rating, Barnyardgrass [5, 36]: 90
- Plant response rating, Barnyardgrass [5, 37]: 90
- Plant response rating, Foxtail, Giant [6, 36]: 90
- Plant response rating, Foxtail, Giant [6, 37]: 90
- Plant response rating, Kochia [22, 36]: 30
- Plant response rating, Kochia [22, 37]: 50
- Plant response rating, Ragweed [23, 36]: 0
- Plant response rating, Ragweed [23, 37]: 50
- Plant response rating, Pigweed [8, 36]: 0
- Plant response rating, Pigweed [8, 37]: 50
- Plant response rating (scale of 0 to 100), Barnyardgrass ([24]; 31 g ai/ha): 10
- Plant response rating (scale of 0 to 100), Barnyardgrass ([24]; 62 g ai/ha): 40
- Plant response rating (scale of 0 to 100), Barnyardgrass ([24]; 125 g ai/ha): 55
- Plant response rating (scale of 0 to 100), Barnyardgrass ([24]; 250 g ai/ha): 70
- Plant response rating (scale of 0 to 100), Rice ([25]; 31 g ai/ha): 0
- Plant response rating (scale of 0 to 100), Rice ([25]; 62 g ai/ha): 0
- Plant response rating (scale of 0 to 100), Rice ([25]; 125 g ai/ha): 0
- Plant response rating (scale of 0 to 100), Rice ([25]; 250 g ai/ha): 10
- Plant response rating (scale of 0 to 100), Sedge, Umbrella ([26]; 31 g ai/ha): 0
- Plant response rating (scale of 0 to 100), Sedge, Umbrella ([26]; 62 g ai/ha): 0
- Plant response rating (scale of 0 to 100), Sedge, Umbrella ([26]; 125 g ai/ha): 0
- Plant response rating (scale of 0 to 100), Sedge, Umbrella ([26]; 250 g ai/ha): 0
- Plant response rating (scale of 0 to 100), Ducksalad ([27]; 31 g ai/ha): 0
- Plant response rating (scale of 0 to 100), Ducksalad ([27]; 62 g ai/ha): 60
- Plant response rating (scale of 0 to 100), Ducksalad ([27]; 125 g ai/ha): 75
- Plant response rating (scale of 0 to 100), Ducksalad ([27]; 250 g ai/ha): 100
- Plant response rating, Wheat [10, 38]: 0
- Plant response rating, Wheat [10, 39]: 40
- Plant response rating, Ryegrass, Italian [28, 40]: 0
- Plant response rating, Ryegrass, Italian [28, 41]: 50
- Plant response rating, Corn [11, 42]: 0
- Plant response rating, Corn [11, 43]: 60
- Plant response rating, Barnyardgrass [13, 42]: 90
- Plant response rating, Barnyardgrass [13, 43]: 90
- Plant response rating, Foxtail, Giant [14, 38]: 90
- Plant response rating, Foxtail, Giant [14, 39]: 90
- Plant response rating, Blackgrass [29, 42]: 20
- Plant response rating, Blackgrass [29, 43]: 50
- Plant response rating, Kochia [30, 40]: 40
- Plant response rating, Kochia [30, 41]: 60
- Plant response rating, Ragweed [31, 40]: 0
- Plant response rating, Ragweed [31, 41]: 0
- Plant response rating, Pigweed [16, 38]: 0
- Plant response rating, Pigweed [16, 39]: 0
- Plant response rating, Galium [32, 40]: 0
- Plant response rating, Galium [32, 41]: 50
